In paper PMC11984388, “A brain-accessible peptide modulates stroke inflammatory response and neurotoxicity by targeting BDNF-receptor TrkB-T1 specific interactome” (Theranostics, 2025):

Test system: CD68+ cells
Test: Immunohistochemistry of macrophages/activated microglia in ischemic brain
Format: in vivo
Settings: male mice, 3 nmol/g, 24 h of insult; versus TMyc
Description: The brains of animals injected one hour af ter the initiation of the photothrombotic damage with vehicle (saline), TMyc or TT1Ct (3 nmol/g) were process ed and cryoprote cted as before indicated. The duration of damage before sa cri f i ce was 5 h (male and female) or 24 h (male).
Coronal froze n se ctions were incubated with blocking solution as des cribe d in flota tion for 1 h at room temperature and then overnight with prima ry antibodies diluted in 4% goat se rum and 0.3% Triton X-100 in PBS at 4°C. After was hing, slides were incubated 1 h with Alexa Fluor 546- conjugated goat anti-rabbit or AlexaFluor 647- conjugated goat anti-mouse se condary antibodies to visua liz e the prima ry antibodies and DAPI (5 μg/ml). Only for Iba1 sta ining, blocking solution was 2.5% BS A, 5% goat se rum, 0.5% Triton X-100 in PBS, and se ctions were incubated with prima ry antibody 24 h at RT follow ed by was hing and Alexa Fluor 546-conjugated goat anti-rabbit and DAPI incubation for 1 h. Sections were then was hed in PBS, mounted on slides , dried for 15 min at 37 °C on a hot plate, or air dried overnight and then cover slipped with DPX or Prolong Diamond. Ce ll Obs erve d images were obtained with Zeiss microscope Observe r.Z1 using a 10x Plan-Apochromatic objective. […]

Question: Ac-YGRKKRRQRRRPPFVLFHKIPLDG-NH2 [TT1Ct] was tested. Which “Effect on CD68+ cells in the infarct and surrounding tissues” value did it give?
Answer: Its value is “greatly decreased”.
